Two compounds from patent US20060068455A1, “GABA detection methods and applications” (priority 2004, published 2006) can be followed below.

The test system of the test is rat brain tissue. As to the kind of experiment: Real-time fluorescence detection of Ca^2+-dependent GABA release from rat neural tissue on GABA-T/SSADH sensor. The test is classed as cell-based. As to the method: Adult Sprague-Dawley rats about 160 grams each were injected with an overdose of Nembutal. The brains or spinal cords were removed and washed several times with PBS and then embedded with 5% low melting temperature agarose (NuSieve® GAG® agarose, FMC BioProducts, Me.). The embedded brains or spinal cords were cut with a Vibratome (VT10003, LEICA Microsystems, Germany) in 300 μm tissue sections. Each tissue section was placed on a GABA-T/SSADH fluorometric silica glass sensor and then GABA released from the tissue sections were measured with Fluoroskan Ascent (Labsystems, Finland).
The silica glass sensors of the present invention may be used to assay neural tissue and agents which affect neural tissue. […] Neural tissue, […], was cultured on GABA-T/SSADH sensors prepared inside tissue culture vessels. […] Therefore, GABA release is stimulated by Ca^2+.
The effect of various agents on GABA release in rat neural tissue were assayed in real-time with a GABA-T/SSADH sensor. The agents tested were 2-APB (a cell-permeable IP3 receptor antagonist), Thapsigargin (a blocker of store-specific Ca^2+-ATPase), Ryanodine and caffeine (increase internal Ca^2+ level), and KN-93 (CAM kinase II inhibitor).
FIGS. 10 and 11 show the effect of Thapsigargin and Ryanodine on Ca^2+-dependent GABA release, respectively. Therefore, the silica glass sensors of the present invention may be used for assaying the effect of various agents on cells and tissues cultured thereon.

As to `[Ca+2].[Cl-].[Cl-]` [Ca^2+], for the setting “100 mM Ca^2+, rat brain tissue, FIG. 8”, the “GABA release versus controls” value is listed as “released more GABA than controls”.

For `NCCOB(c1ccccc1)c1ccccc1` [2-APB], under “75 μM 2-APB without 10 mM CaCl2 compared with 75 μM 2-APB with 10 mM CaCl2, FIG. 9”, the “less GABA release” value was “about 41.9%”. For the setting “75 μM 2-APB, rat neural tissue, FIG. 9”, the “effect on Ca^2+-dependent GABA release” value is on record as “inhibits Ca^2+-dependent GABA release”.
